Reference: the NIST ThermoML archive (doi:10.1016/j.jct.2016.03.021)

Experiment: wn = mass fraction of the nth substance listed
Details: Liquid, Vibrating tube method

NCCO [2-aminoethan-1-ol] + O
mass density [kg/m3]
Details	w1 = 0.1001	w1 = 0.2	w1 = 0.3005	w1 = 0.4
373.15 K, 120000 kPa	1009.6	1009.6	1011.1	1012.9
393.15 K, 100 kPa	945.2	946.5	948.4	950
393.15 K, 500 kPa	945.6	946.9	948.8	950.4
393.15 K, 1000 kPa	945.8	947	948.9	950.6
393.15 K, 2000 kPa	946.3	947.5	949.4	951.1
393.15 K, 5000 kPa	947.8	949	950.9	952.5
393.15 K, 10000 kPa	950.3	951.5	953.3	955
393.15 K, 15000 kPa	952.7	953.8	955.7	957.3
393.15 K, 20000 kPa	955.2	956.2	958.1	959.7
393.15 K, 30000 kPa	959.8	960.7	962.6	964.3
393.15 K, 40000 kPa	964.4	965.2	967	968.7
393.15 K, 50000 kPa	968.7	969.4	971.1	972.8
393.15 K, 60000 kPa	973	973.6	975.3	977
393.15 K, 70000 kPa	977.3	977.8	979.5	981.1
393.15 K, 80000 kPa	981.3	981.6	983.2	985
393.15 K, 90000 kPa	985.2	985.6	987.1	988.8
393.15 K, 100000 kPa	989.1	989.4	990.9	992.5
393.15 K, 110000 kPa	993	993	994.6	996.2
393.15 K, 120000 kPa	996.7	996.7	998.2	999.7
